Assay results reported in US4552879A, “Benzoheterocyclic compounds and pharmaceutical composition thereof” (Otsuka Pharmaceutical Co., Ltd., priority 1980, dated 1985).
Values after ≈ are worked out from the molar mass of the structure shown. Like-named read-outs stand apart in the source and are kept apart here.

Assays:
Assay in all cases: Minimum inhibitory concentration, serial dilution method on agar plate
Type in all cases: cell-based
[1] = system: Shigella sonnei EW 33
Protocol: The antimicrobial activity of the following test compounds on various test organisms listed below was determined by the serial dilution method on agar plate (Heart Infusion agar produced by Difco Co.) (see CHEMOTHERAPY 22, pp. 1126-1128 (1974)), and the minimum inhibitory concentrations (mcg/ml) obtained are shown in Tables 1, 2 and 3 below.
A sample of each test organism was prepared so that the population of the organism was 1×10^8 cells/ml (O.D. 660 mμ=0.07 to 0.16) and 1×10^6 cells/ml (which was obtained by diluting 100 fold the above 1×10^8 cells/ml preparation).

[2] = system: Proteus rettgeri NIH 96; details: Providencia rettgeri
[3] = system: Serratia marcescens IFO 12648
[4] = system: Pseudomonas putida 12996
[5] = system: Klebsiella pneumoniae
[6] = system: Streptococcus pyogenes IID S-23; details: for MIC: Streptococcus pyogenes
[7] = system: Escherichia Coli NIHJ JC-2 (IFO 12734)
[8] = system: Staphylococcus aureus FDA 209 P; details: for MIC: Staphylococcus aureus
[9] = system: Salmonella typhi 0-901 (NCTC 8393); details: Salmonella enterica
[10] = system: Pseudomonas aeruginosa ATCC 10145; details: for MIC: Pseudomonas aeruginosa
[11] = system: Pseudomonas aeruginosa E-2; details: for MIC: Pseudomonas aeruginosa
[12] = system: Pseudomonas aeruginosa NCTC 10490
[13] = NIH96, read-out: Minimum Inhibitory Concentration, 1×10^8 cells/ml
[14] = read-out: Minimum Inhibitory Concentration, 1×10^6 cells/ml
[15] = read-out: Minimum Inhibitory Concentration, 1×10^8 cells/ml
[16] = NIH96, 1×10^6 cells/ml, read-out: Minimum Inhibitory Concentration
[17] = NIH96, 1×10^8 cells/ml, read-out: Minimum Inhibitory Concentration
[18] = IFO12648, 1×10^6 cells/ml, read-out: Minimum Inhibitory Concentration
[19] = IFO12648, 1×10^8 cells/ml, read-out: Minimum Inhibitory Concentration
[20] = 1×10^6 cells/ml, read-out: Minimum Inhibitory Concentration
[21] = 1×10^8 cells/ml, read-out: Minimum Inhibitory Concentration
[22] = IIDS23, 1×10^6 cells/ml, read-out: Minimum Inhibitory Concentration
[23] = IIDS23, 1×10^8 cells/ml, read-out: Minimum Inhibitory Concentration
[24] = FDA209, 1×10^6 cells/ml, read-out: Minimum Inhibitory Concentration
[25] = FDA209, 1×10^8 cells/ml, read-out: Minimum Inhibitory Concentration
[26] = ATCC10145, 1×10^6 cells/ml, read-out: Minimum Inhibitory Concentration
[27] = ATCC10145, 1×10^8 cells/ml, read-out: Minimum Inhibitory Concentration
[28] = E2, 1×10^6 cells/ml, read-out: Minimum Inhibitory Concentration
[29] = E2, 1×10^8 cells/ml, read-out: Minimum Inhibitory Concentration
[30] = Pseudomonas putida, 12996, 1×10^6 cells/ml, read-out: Minimum Inhibitory Concentration
[31] = Pseudomonas putida, 12996, 1×10^8 cells/ml, read-out: Minimum Inhibitory Concentration

## CCn1cc(C(=O)O)c(=O)c2ccc(C)nc21 [Compound 9, 1-Ethyl-1,4-dihydro-7-methyl-4-oxo-1,8-naphthyridine-3-carboxylic acid, reference compound]
[1]; EW33, 1×10^6 cells/ml
  MIC: 3.13 µg/mL (≈ 13.5 µM)
[1]; EW33, 1×10^8 cells/ml
  MIC: 3.13 µg/mL (≈ 13.5 µM)
[2]; NIH96, read-out: Minimum Inhibitory Concentration, 1×10^6 cells/ml
  MIC: 1.56 µg/mL (≈ 6.72 µM)
[2]; [13]
  MIC: 1.56 µg/mL (≈ 6.72 µM)
[3]; IFO12648, read-out: Minimum Inhibitory Concentration, 1×10^6 cells/ml
  MIC: 3.13 µg/mL (≈ 13.5 µM)
[3]; IFO12648, read-out: Minimum Inhibitory Concentration, 1×10^8 cells/ml
  MIC: 3.13 µg/mL (≈ 13.5 µM)
[4]; 1×10^6 cells/ml
  Minimum Inhibitory Concentration: > 100 µg/mL
[4]; Pseudomonas putida, 12996, read-out: Minimum Inhibitory Concentration
  MIC: > 100 µg/mL
[5]; [14]
  MIC: 1.56 µg/mL (≈ 6.72 µM)
[5]; [15]
  MIC: 1.56 µg/mL (≈ 6.72 µM)
[6]; 1×10^6 cells/ml
  Minimum Inhibitory Concentration: > 100 µg/mL
[6]; IIDS23, read-out: Minimum Inhibitory Concentration
  MIC: > 100 µg/mL
[7]; [14]
  MIC: 3.13 µg/mL (≈ 13.5 µM)
[7]; [15]
  MIC: 3.13 µg/mL (≈ 13.5 µM)
[8]; 1×10^6 cells/ml
  Minimum Inhibitory Concentration: 50 µg/mL
[8]; FDA209, read-out: Minimum Inhibitory Concentration
  MIC: 50 µg/mL (≈ 215 µM)
[9]; [14]
  MIC: 3.13 µg/mL (≈ 13.5 µM)
[9]; [15]
  MIC: 3.13 µg/mL (≈ 13.5 µM)
[10]; 1×10^6 cells/ml
  Minimum Inhibitory Concentration: > 100 µg/mL
[10]; ATCC10145, read-out: Minimum Inhibitory Concentration
  MIC: > 100 µg/mL
[11]; 1×10^6 cells/ml
  Minimum Inhibitory Concentration: > 100 µg/mL
[11]; E2, read-out: Minimum Inhibitory Concentration
  MIC: > 100 µg/mL

## CC1Cc2c(N3CCOCC3)c(F)cc3c(=O)c(C(=O)O)cn1c23 (stereo not shown) [Compound 7, 9-Morpholino-8-fluoro-2-methyl-1,2-dihydro-6-oxo-pyrrolo[3,2,1-ij]quinoline-5-carboxylic acid]
[1]; EW33, 1×10^6 cells/ml
  MIC: 0.024 µg/mL (≈ 0.0722 µM)
[1]; EW33, 1×10^8 cells/ml
  MIC: 0.024 µg/mL (≈ 0.0722 µM)
[2]; [16]
  MIC: 0.05 µg/mL (≈ 0.15 µM)
[2]; [17]
  MIC: 0.05 µg/mL (≈ 0.15 µM)
[3]; [18]
  MIC: 0.2 µg/mL (≈ 0.602 µM)
[3]; [19]
  MIC: 0.39 µg/mL (≈ 1.17 µM)
[5]; [20]
  MIC: 0.1 µg/mL (≈ 0.301 µM)
[5]; [21]
  MIC: 0.2 µg/mL (≈ 0.602 µM)
[6]; [22]
  MIC: 0.78 µg/mL (≈ 2.35 µM)
[6]; [23]
  MIC: 0.78 µg/mL (≈ 2.35 µM)
[7]; [20]
  MIC: 0.2 µg/mL (≈ 0.602 µM)
[7]; [21]
  MIC: 0.2 µg/mL (≈ 0.602 µM)
[8]; [24]
  MIC: 0.024 µg/mL (≈ 0.0722 µM)
[8]; [25]
  MIC: 0.024 µg/mL (≈ 0.0722 µM)
[9]; [14]
  MIC: 0.024 µg/mL (≈ 0.0722 µM)
[9]; [15]
  MIC: 0.024 µg/mL (≈ 0.0722 µM)
[10]; [26]
  MIC: 1.56 µg/mL (≈ 4.69 µM)
[10]; [27]
  MIC: 1.56 µg/mL (≈ 4.69 µM)
[11]; [28]
  MIC: 1.56 µg/mL (≈ 4.69 µM)
[11]; [29]
  MIC: 1.56 µg/mL (≈ 4.69 µM)
[12]; 1×10^6 cells/ml
  Minimum Inhibitory Concentration: 1.56 µg/mL
[12]; Pseudomonas aeruginosa, NCTC10490, 1×10^8 cells/ml
  MIC: 1.56 µg/mL (≈ 4.69 µM)

## CC1CCc2c(N3CCOCC3)c(F)cc3c(=O)c(C(=O)O)cn1c23 (stereo not shown) [Compound 2, 9-Fluoro-8-morpholino-5-methyl-6,7-dihydro-1-oxo-1H,5H-benzo[ij]quinolizine-2-carboxylic acid]
[1]; EW33, 1×10^6 cells/ml
  MIC: 0.1 µg/mL (≈ 0.289 µM)
[1]; EW33, 1×10^8 cells/ml
  MIC: 0.1 µg/mL (≈ 0.289 µM)
[2]; [16]
  MIC: 0.05 µg/mL (≈ 0.144 µM)
[2]; [13]
  MIC: 0.1 µg/mL (≈ 0.289 µM)
[3]; [18]
  MIC: 0.39 µg/mL (≈ 1.13 µM)
[3]; [19]
  MIC: 0.78 µg/mL (≈ 2.25 µM)
[4]; [30]
  MIC: 3.13 µg/mL (≈ 9.04 µM)
[4]; [31]
  MIC: 6.25 µg/mL (≈ 18 µM)
[5]; [14]
  MIC: 0.2 µg/mL (≈ 0.577 µM)
[5]; [15]
  MIC: 0.2 µg/mL (≈ 0.577 µM)
[6]; [22]
  MIC: 0.78 µg/mL (≈ 2.25 µM)
[6]; [23]
  MIC: 0.78 µg/mL (≈ 2.25 µM)
[7]; [14]
  MIC: 0.1 µg/mL (≈ 0.289 µM)
[7]; [15]
  MIC: 0.2 µg/mL (≈ 0.577 µM)
[8]; [24]
  MIC: 0.025 µg/mL (≈ 0.0722 µM)
[8]; [25]
  MIC: 0.05 µg/mL (≈ 0.144 µM)
[9]; [14]
  MIC: 0.05 µg/mL (≈ 0.144 µM)
[9]; [15]
  MIC: 0.1 µg/mL (≈ 0.289 µM)
[10]; [26]
  MIC: 3.13 µg/mL (≈ 9.04 µM)
[10]; [27]
  MIC: 3.13 µg/mL (≈ 9.04 µM)
[11]; [28]
  MIC: 3.13 µg/mL (≈ 9.04 µM)
[11]; [29]
  MIC: 6.25 µg/mL (≈ 18 µM)

## CC1CCc2c(N3CCCCC3)c(F)cc3c(=O)c(C(=O)O)cn1c23 (stereo not shown) [Compound 4, 9-Fluoro-8-(1-piperidyl)-5-methyl-6,7-dihydro-1-oxo-1H,5H-benzo[ij]quinolizine-2-carboxylic acid]
[1]; EW33, 1×10^6 cells/ml
  MIC: 0.78 µg/mL (≈ 2.26 µM)
[1]; EW33, 1×10^8 cells/ml
  MIC: 0.78 µg/mL (≈ 2.26 µM)
[2]; [16]
  MIC: 1.56 µg/mL (≈ 4.53 µM)
[2]; [17]
  MIC: 1.56 µg/mL (≈ 4.53 µM)
[3]; [18]
  MIC: 6.25 µg/mL (≈ 18.1 µM)
[3]; [19]
  MIC: 12.5 µg/mL (≈ 36.3 µM)
[4]; [30]
  MIC: 25 µg/mL (≈ 72.6 µM)
[4]; [31]
  MIC: 25 µg/mL (≈ 72.6 µM)
[5]; [20]
  MIC: 1.56 µg/mL (≈ 4.53 µM)
[5]; [21]
  MIC: 1.56 µg/mL (≈ 4.53 µM)
[6]; [22]
  MIC: 0.78 µg/mL (≈ 2.26 µM)
[6]; [23]
  MIC: 1.56 µg/mL (≈ 4.53 µM)
[7]; [20]
  MIC: 1.56 µg/mL (≈ 4.53 µM)
[7]; [21]
  MIC: 1.56 µg/mL (≈ 4.53 µM)
[8]; [24]
  MIC: 0.05 µg/mL (≈ 0.145 µM)
[8]; [25]
  MIC: 0.05 µg/mL (≈ 0.145 µM)
[9]; [14]
  MIC: 0.39 µg/mL (≈ 1.13 µM)
[9]; [15]
  MIC: 0.39 µg/mL (≈ 1.13 µM)
[10]; [26]
  MIC: 12.5 µg/mL (≈ 36.3 µM)
[10]; [27]
  MIC: 12.5 µg/mL (≈ 36.3 µM)
[11]; [28]
  MIC: 12.5 µg/mL (≈ 36.3 µM)
[11]; [29]
  MIC: 25 µg/mL (≈ 72.6 µM)
